{
  "source": "patent US20240400717A1",
  "about": "“Antibody Binding to CHI3L1 for Treating Cancer” (National Cheng Kung University, priority 2021, published 2024)",
  "tested_on": "MiaPaCa cells",
  "experiment": "MiaPaCa orthotopic NOD-SCID mice model",
  "key": {"[1]": {"settings": "mAb 5 mg/kg i.v., gemcitabine 50 mg/kg i.p."}},
  "description": "Specifically, experimental design of tumor growth inhibition in vivo. MiaPaCa cells (5×10^6) were injected into pancreas of NOD-SCID mice at Day 0. […] Mice were sacrificed on day 34. […] Since fibrosis and angiogenesis are two major issues during tumor progression, we compared the fibrosis and angiogenesis level within each groups.",
  "data": [
    {"smiles": "Nc1ccn([C@@H]2O[C@H](CO)[C@@H](O)C2(F)F)c(=O)n1", "note": "[gemcitabine, reference compound]", "values": [
      {"measurement": "level of CHI3L1 in intratumoral region and plasma", "setting": "end of experiment", "result": "lower than IgG control group"},
      {"measurement": "angiogenesis indicated by CD31 expression", "setting": "[1]", "result": "decreased in every treatment groups"},
      {"measurement": "body weight", "setting": "[1]", "result": "without significant weight loss"},
      {"measurement": "tumor size", "setting": "mAb 5 mg/kg i.v., gemcitabine 50 mg/kg i.p., Day 7, 14, 21, 28, sacrificed day 34", "result": "smaller than IgG control group"}
    ]}
  ]
}
